Measured values published in patent US10322127B2, “Methods and kits to predict therapeutic outcome of BTK inhibitors” (THE TRANSLATIONAL GENOMICS RESEARCH INSTITUTE, priority 2010, dated 2019).

Key:
[1] = test system: BCR (B cell receptor) signaling in human B cells; conditions: cited from earlier work
[2] = test system: pancreatic cancer cell lines with a DPC4 deletion (BxPC-3 and CFPAC-1) vs DPC4 wildtype (MIA PaCa-2 and PANC-1); assay: Cell viability by Cell Titer-Glo after 96 hours of drug treatment, pancreatic cancer cell lines; format: cell-based, human; conditions: BxPC-3 and CFPAC-1 vs MIA PaCa-2 and PANC-1, FIG. 5A, *p<0.05, **p<0.0001
Experimental: Cell viability was measured by Cell Titer-Glo after 96 hours of drug treatment.

[3] = test system: mast cell and basophil degranulation; conditions: cited from earlier work
[4] = test system: collagen-induced arthritis; conditions: mice, orally dosed; cited from earlier work
[5] = test system: T cell receptor (TCR) signaling; conditions: cited from earlier work
[6] = test system: MRL/lpr lupus model; conditions: cited from earlier work

Compound: C=CC(=O)N1CCC[C@@H](n2nc(-c3ccc(Oc4ccccc4)cc3)c3c(N)ncnc32)C1 [PCI-32765]
- effect on BCR signaling [1]: blocks
- activity (inhibition of cell growth) in DPC4 deleted vs DPC4 wildtype pancreatic cancer cell lines [2]: more activity
- inhibition of mast cell and basophil degranulation [3]: potent inhibitor
- course of collagen induced arthritis [4]: reversed
- level of circulating autoantibodies [4]: reduced
- effect on TCR signaling [5]: does not affect
- auto-antibody production and development of kidney disease [6]: inhibited
